According to patent US9827235B2, “Pharmaceutical compositions comprising antibacterial agents” (WOCKHARDT LIMITED, priority 2013, dated 2017):
Like-named read-outs stand apart in the source and are kept apart here. One block for each molecule: values may come before it.

Assays:
Type in all cases: cell-based
E. coli M 44 = assay: MIC on Muller Hinton Agar (CLSI); conditions: for MIC: enzymes TEM
Protocol: (§1) The antibacterial activity of combinations according to the invention was investigated against various bacterial strains. In a typical study, minimum inhibitory concentrations (MIC) were determined using Muller Hinton Agar (MHA) (BD, USA) according to Clinical and Laboratory Standards Institute (CLSI) recommendations, (Clinical and Laboratory Standards Institute (CLSI), Performance Standards for Antimicrobial Susceptibility Testing, 20th Informational Supplement, M 100-S20, Volume 30, No. 1, 2010). In short, the inocula were adjusted to deliver about 10^4 colony forming units (CFU) per spot with a multipoint inoculator (Applied Quality Services, UK). The plates were pored with doubling concentration range of the test combinations according to invention containing MHA. The plates were inoculated and were incubated at 35° C. for 18 hours.

E. coli S 16 = assay: MIC on Muller Hinton Agar (CLSI); conditions: for MIC: enzymes CMY type, TEM, DHA
Protocol: as §1

E. coli S 30 = assay: MIC on Muller Hinton Agar (CLSI); conditions: for MIC: enzymes CMY type, TEM
Protocol: as §1

E. coli S 330 = assay: MIC on Muller Hinton Agar (CLSI)
Protocol: as §1

E. coli S 33 = assay: MIC on Muller Hinton Agar (CLSI); conditions: for MIC: enzymes TEM
Protocol: as §1

E. coli S 35 = assay: MIC on Muller Hinton Agar (CLSI); conditions: for MIC: enzymes TEM
Protocol: as §1

K. pneumoniae B 77 = assay: MIC on Muller Hinton Agar (CLSI); conditions: for MIC: enzymes SHV, TEM
Protocol: as §1

K. pneumoniae B 88 = assay: MIC on Muller Hinton Agar (CLSI); conditions: for MIC: enzymes SHV, TEM
Protocol: as §1

K. pneumoniae M 3 = assay: MIC on Muller Hinton Agar (CLSI); conditions: for MIC: enzymes SHV, CTXM, TEM
Protocol: as §1

K. pneumoniae NCTC 13439 = assay: MIC on Muller Hinton Agar (CLSI)
Protocol: as §1

K. pneumoniae S 48 = assay: MIC on Muller Hinton Agar (CLSI); conditions: for MIC: enzymes SHV, TEM
Protocol: as §1

K. pneumoniae S 50 = assay: MIC on Muller Hinton Agar (CLSI); conditions: for MIC: enzymes SHV, TEM
Protocol: as §1

[1] = test system: P. aeruginosa H 113720186; assay: MIC on Muller Hinton Agar (CLSI); conditions: for MIC: enzymes IMP
Protocol: as §1

P. aeruginosa Q-111 = assay: MIC on Muller Hinton Agar (CLSI)
Protocol: as §1

P. aeruginosa S 504 = assay: MIC on Muller Hinton Agar (CLSI)
Protocol: as §1

P. aeruginosa S 508 = assay: MIC on Muller Hinton Agar (CLSI)
Protocol: as §1

P. aeruginosa S 513 = assay: MIC on Muller Hinton Agar (CLSI)
Protocol: as §1

[2] = test system: clinical isolate of K. pneumoniae B 88 producing metallo beta-lactamases [SHV, TEM, NDM-1]; assay: Time kill study; conditions: for Bacterial count: each agent at 8 mcg/ml, initial count 6.18 log CFU/ml
Protocol: Typically, freshly grown cultures were diluted to the required cell density (initial starting inoculum) in Cation adjusted Muller Hinton broth medium BD, USA). The antibacterial agents at the required concentrations were added into the culture-containing medium either alone or in combination. The samples were incubated under shaking condition (120 rpm) at 37° C. Enumeration of viable bacterial count was undertaken, every 2 hour, by diluting in normal saline and plating on to the Tryptic Soya Agar plates (BD, USA). The plates were incubated for 24 hours to arrive at the viable bacterial count. […] The decrease of 1 Log CFU/ml, after administration of combination of present invention, in comparison to initial bacterial count corresponds to 90% killing of bacteria. Similarly, 2 Log CFU/ml reductions corresponds to 99% killing of bacteria and 3 Log CFU/ml reductions is equal to 99.9% killing of bacteria.

[3] = test system: highly resistant strains of E. coli, K. pneumonia and P. aeruginosa; assay: MIC, summary over the strain panel
Protocol: as §1

MIC (E. coli M 44; Escherichia coli, M44, agent alone, NDM-1, read-out: MIC): 32 µg/mL
MIC (E. coli S 16; Escherichia coli, S16, agent alone, read-out: MIC): > 32 µg/mL
MIC (E. coli S 30; Escherichia coli, S30, agent alone, NDM-1, read-out: MIC): > 32 µg/mL
MIC (E. coli S 330; Escherichia coli, S330, agent alone, enzymes NDM, read-out: MIC): > 32 µg/mL
MIC (E. coli S 33; Escherichia coli, S33, agent alone, NDM-1, read-out: MIC): > 32 µg/mL
MIC (E. coli S 35; Escherichia coli, S35, agent alone, NDM-1, read-out: MIC): > 32 µg/mL
MIC (K. pneumoniae B 77; Klebsiella pneumoniae, B77, agent alone, NDM-1, read-out: MIC): > 32 µg/mL
MIC (K. pneumoniae B 88; Klebsiella pneumoniae, B88, agent alone, NDM-1, read-out: MIC): > 32 µg/mL
MIC (K. pneumoniae M 3; Klebsiella pneumoniae, M3, agent alone, NDM-1, read-out: MIC): 16 µg/mL
MIC (K. pneumoniae NCTC 13439; Klebsiella pneumoniae, NCTC13439, agent alone, enzymes VIM-1, read-out: MIC): > 32 µg/mL
MIC (K. pneumoniae S 48; Klebsiella pneumoniae, S48, agent alone, NDM-1, read-out: MIC): 32 µg/mL
MIC (K. pneumoniae S 50; Klebsiella pneumoniae, S50, agent alone, NDM-1, read-out: MIC): > 32 µg/mL
MIC ([1]; Pseudomonas aeruginosa, H113720186, agent alone, read-out: MIC): > 64 µg/mL
MIC (P. aeruginosa Q-111; Pseudomonas aeruginosa, Q111, agent alone, enzymes OXA-4, OXA-11, read-out: MIC): 4 µg/mL
MIC (P. aeruginosa S 504; Pseudomonas aeruginosa, S504, agent alone, enzymes VIM-6, read-out: MIC): > 32 µg/mL
MIC (P. aeruginosa S 508; Pseudomonas aeruginosa, S508, agent alone, enzymes VIM-11, read-out: MIC): > 32 µg/mL
MIC (P. aeruginosa S 513; Pseudomonas aeruginosa, S513, agent alone, enzymes VIM-6, read-out: MIC): > 32 µg/mL
Molecule: C[C@@H](O)[C@H]1C(=O)N2C(C(=O)O)=C(S[C@@H]3CN[C@H](C(=O)N(C)C)C3)[C@H](C)[C@H]12 [Meropenem, meropenem]
Bacterial count ([2]; 2 hours): 6.02 Log CFU/ml
Bacterial count ([2]; 4 hours): 6.3 Log CFU/ml
Bacterial count ([2]; 6 hours): 7.6 Log CFU/ml
Change in bacterial count (in words) ([2]; used alone at 8 mcg/ml, at the end of 6 hours): no decrease in bacterial count was observed

MIC (mcg/ml) of ceftazidine in presence of avibactam (4 mcg/ml) (E. coli M 44; with avibactam at 4 mcg/ml): >16 µg/mL
MIC (mcg/ml) of ceftazidine in presence of avibactam (4 mcg/ml) (E. coli S 16; with avibactam at 4 mcg/ml): >16 µg/mL
MIC (mcg/ml) of ceftazidine in presence of avibactam (4 mcg/ml) (E. coli S 30; with avibactam at 4 mcg/ml): >16 µg/mL
MIC (mcg/ml) of ceftazidine in presence of avibactam (4 mcg/ml) (E. coli S 330; with avibactam at 4 mcg/ml): >16 µg/mL
MIC (mcg/ml) of ceftazidine in presence of avibactam (4 mcg/ml) (E. coli S 33; with avibactam at 4 mcg/ml): >16 µg/mL
MIC (mcg/ml) of ceftazidine in presence of avibactam (4 mcg/ml) (E. coli S 35; with avibactam at 4 mcg/ml): >16 µg/mL
MIC (mcg/ml) of ceftazidine in presence of avibactam (4 mcg/ml) (K. pneumoniae B 77; with avibactam at 4 mcg/ml): >16 µg/mL
MIC (mcg/ml) of ceftazidine in presence of avibactam (4 mcg/ml) (K. pneumoniae B 88; with avibactam at 4 mcg/ml): >16 µg/mL
MIC (mcg/ml) of ceftazidine in presence of avibactam (4 mcg/ml) (K. pneumoniae M 3; with avibactam at 4 mcg/ml): >16 µg/mL
MIC (mcg/ml) of ceftazidine in presence of avibactam (4 mcg/ml) (K. pneumoniae NCTC 13439; with avibactam at 4 mcg/ml): >16 µg/mL
MIC (mcg/ml) of ceftazidine in presence of avibactam (4 mcg/ml) (K. pneumoniae S 48; with avibactam at 4 mcg/ml): >16 µg/mL
MIC (mcg/ml) of ceftazidine in presence of avibactam (4 mcg/ml) (K. pneumoniae S 50; with avibactam at 4 mcg/ml): >16 µg/mL
MIC (mcg/ml) of ceftazidine in presence of avibactam (4 mcg/ml) ([1]; with avibactam at 4 mcg/ml): >32 µg/mL
MIC (mcg/ml) of ceftazidine in presence of avibactam (4 mcg/ml) (P. aeruginosa Q-111; with avibactam at 4 mcg/ml): 32 µg/mL
MIC (mcg/ml) of ceftazidine in presence of avibactam (4 mcg/ml) (P. aeruginosa S 504; with avibactam at 4 mcg/ml): >16 µg/mL
MIC (mcg/ml) of ceftazidine in presence of avibactam (4 mcg/ml) (P. aeruginosa S 508; with avibactam at 4 mcg/ml): >16 µg/mL
MIC (mcg/ml) of ceftazidine in presence of avibactam (4 mcg/ml) (P. aeruginosa S 513; with avibactam at 4 mcg/ml): >16 µg/mL
MIC values of ceftazidime in presence of avibactam ([3]; with avibactam at 4 mcg/ml, in most of the cases): more than 16 mcg/ml
Molecule: CC(C)(O/N=C(\C(=O)N[C@@H]1C(=O)N2C(C(=O)[O-])=C(C[n+]3ccccc3)CS[C@H]12)c1csc(N)n1)C(=O)O [ceftazidine, ceftazidime]

Molecule: colistin
MIC (E. coli M 44; agent alone, NDM-1): 1 µg/mL
MIC (E. coli S 16; agent alone): 1 µg/mL
MIC (E. coli S 30; agent alone, NDM-1): 0.5 µg/mL
MIC (E. coli S 33; agent alone, NDM-1): 1 µg/mL
MIC (E. coli S 35; agent alone, NDM-1): 1 µg/mL
MIC (K. pneumoniae B 77; agent alone, NDM-1): 1 µg/mL
MIC (K. pneumoniae B 88; agent alone, NDM-1): 1 µg/mL
MIC (K. pneumoniae M 3; agent alone, NDM-1): 1 µg/mL
MIC (K. pneumoniae S 48; agent alone, NDM-1): 1 µg/mL
MIC (K. pneumoniae S 50; agent alone, NDM-1): 1 µg/mL
MIC ([1]; agent alone): 2 µg/mL
MIC (P. aeruginosa Q-111; agent alone, enzymes OXA-4, OXA-11): 2 µg/mL
MIC (P. aeruginosa S 504; agent alone, enzymes VIM-6): 2 µg/mL
MIC (P. aeruginosa S 508; agent alone, enzymes VIM-11): 2 µg/mL
MIC (P. aeruginosa S 513; agent alone, enzymes VIM-6): 2 µg/mL
MICs (range over the strains) ([3]; agent alone, resistant strains of E. coli, K. pneumonia and P. aeruginosa): 0.5 to 2 µg/mL
